Laboratory results published in patent US9981928B2, “Aryl sulfide derivatives and aryl sulfoxide derivatives as acaricides and insecticides” (BAYER CROPSCIENCE AKTIENGESELLSCHAFT, priority 2013, dated 2018).
Read-outs that look alike come from different tables or passages of the source.

Legend:
[1] = test system: southern root-knot nematode (Meloidogyne incognita); experiment: Meloidogyne incognita test (MELGIN); type: in vivo; details: lettuce in sand; application rate 20 ppm; after 14 days
Method: Meloidogvne incognita test (MELGIN)
Solvent: 125.0 parts by weight of acetone
To produce a suitable preparation of active compound, 1 part by weight of active compound is mixed with the stated amount of solvent and the concentrate is diluted with water to the desired concentration.
Vessels are filled with sand, active compound solution, an egg/larvae suspension of the southern root-knot nematode (Meloidogyne incognita) and lettuce seeds. The lettuce seeds germinate and the plants develop. The galls develop on the roots.
After 14 days, the nematicidal efficacy in % is determined by the formation of galls. 100% means that no galls were found; 0% means that the number of galls on the treated plants corresponds to the untreated control.

[2] = test system: greenhouse red spider mite (Tetranychus urticae); experiment: Tetranychus urticae spray test, OP-resistant (TETRUR), bean leaf disks; type: in vivo; details: bean leaf disks, after 6 days; for pest or weed control at 500 g/ha: Tetranychus urticae, foliar, 144 h, read-out: efficacy in %
Method in brief: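 Bean leaf disks carrying all stages of OP-resistant Tetranychus urticae sprayed with compound in acetone/dimethylformamide diluted in emulsifier water. Kill assessed after 6 days as % efficacy, 100% meaning all mites dead.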

[3] = log P determination by HPLC on reversed-phase columns (C 18), analogously to OECD Guideline 117; type: physicochemical; details: for chromatographic logP: reversed-phase C18 HPLC column; for logP (HCOOH): LC-MS in the acidic range, pH 2.7, 0.1% aqueous formic acid / acetonitrile; for logP (HCOOH) / logP (neutral): HPLC reversed-phase C 18; for logP (neutral): LC-MS in the neutral range, pH 7.8, 0.001 molar aqueous ammonium hydrogencarbonate / acetonitrile
Method in brief: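 Reversed-phase C18 HPLC per OECD 117 with LC-MS detection and a linear 10→95% acetonitrile gradient. Acidic log P run at pH 2.7 with 0.1% formic acid in both eluents. Neutral log P run at pH 7.8 with 0.001 M aqueous ammonium hydrogencarbonate.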

[4] = acidic range, pH 2.7, 0.1% aqueous formic acid and acetonitrile, read-out: log P[a] / log P(HCOOH)
[5] = neutral range, pH 7.8, 0.001 molar aqueous ammonium hydrogencarbonate and acetonitrile, read-out: log P[b] / log P(neutral)

Cc1ccc(-n2c(=O)n(C)c(=O)n2C)cc1SCC(F)(F)F [Example 20, 1,4-Dimethyl-2-{4-methyl-3-[(2,2,2-trifluoroethyl)sulfanyl]phenyl}-1,2,4-triazolidine-3,5-dione]
nematicidal efficacy in % (formation of galls) [1]: 90% | pest or weed control at 500 g/ha ([2]; application rate 500 g/ha): 100% | chromatographic logP [3, 4]: 2.59 | chromatographic logP [3, 5]: 2.58

Cn1c(=O)n(C)n(-c2cc([S+]([O-])CC(F)(F)F)c(Br)cc2F)c1=O (stereo not drawn) [Example 69]
nematicidal efficacy in % (formation of galls) [1]: 90% | logP (HCOOH) [3]: 2.01 | logP (neutral) [3]: 1.98

C=CCn1c(=O)n(C)n(-c2cc(SCC(F)(F)F)c(C)cc2F)c1=O [Example 81]
nematicidal efficacy in % (formation of galls) [1]: 90% | efficacy in % ([2]; application rate 100 g/ha): 100% | logP (HCOOH) [3]: 3.05 | logP (neutral) [3]: 3.01

Cn1c(=O)n(C)n(-c2cc([S+]([O-])CC(F)(F)F)c(F)cc2F)c1=O (stereo not drawn) [Example 70]
nematicidal efficacy in % (formation of galls) [1]: 90% | logP (HCOOH) [3]: 1.64 | logP (neutral) [3]: 1.59

C=CCn1c(=O)n(C)n(-c2cc([S+]([O-])CC(F)(F)F)c(C)cc2F)c1=O (stereo not drawn) [Example 80]
nematicidal efficacy in % (formation of galls) [1]: 90% | efficacy in % ([2]; application rate 500 g/ha): 100% | logP (HCOOH) [3]: 2.07 | logP (neutral) [3]: 2.03

Cn1c(=O)n(C2CC2)c(=O)n1-c1ccc(C#N)c(SCC(F)(F)F)c1 [Example 44]
nematicidal efficacy in % (formation of galls) [1]: 90% | logP (HCOOH) [3]: 2.53 | logP (neutral) [3]: 2.45

Cc1cc(F)c(N2C(=O)C3(CCC3)C(=O)N2C)cc1SCC(F)(F)F [Example 179]
nematicidal efficacy in % (formation of galls) [1]: 90% | efficacy in % ([2]; application rate 500 g/ha): 100% | logP (HCOOH) [3]: 3.00 | logP (neutral) [3]: 2.96

Cn1c(=O)n(C2CC2)c(=O)n1-c1ccc(Br)c([S+]([O-])CC(F)(F)F)c1 (stereo not drawn) [Example 45]
nematicidal efficacy in % (formation of galls) [1]: 90% | logP (HCOOH) [3]: 2.27 | logP (neutral) [3]: 2.24

Cc1cc(F)c(-n2c(=S)n(C3CC3)c(=S)n2C)cc1SCC(F)(F)F [Example 182, 4-cyclopropyl-1-{2-fluoro-4-methyl-5-[(2,2,2-trifluoroethyl)sulfanyl]phenyl}-2-methyl-1,2,4-triazolidine-3,5-dithione]
nematicidal efficacy in % (formation of galls) [1]: 90% | chromatographic logP [3, 4]: 3.83 | chromatographic logP [3, 5]: 3.76

Cc1cc(F)c(N2CCNC2=O)cc1SCC(F)(F)F [Example 9, 1-{2-Fluoro-4-methyl-5-[(2,2,2-trifluoroethyl)sulfanyl]phenyl}imidazolidin-2-one]
pest or weed control at 500 g/ha ([2]; application rate 500 g/ha): 90% | chromatographic logP [3, 4]: 2.36 | chromatographic logP [3, 5]: 2.31

C=CCn1c(=O)n(-c2ccc(C)c(SCC(F)(F)F)c2)n(-c2ccc(C)c(SCC(F)(F)F)c2)c1=O [Example 79]
efficacy in % ([2]; application rate 100 g/ha): 90% | logP (HCOOH) [3]: 4.86 | logP (neutral) [3]: 4.67

Cc1cc(F)c(N2C(=O)OC(C)(C)C2=O)cc1SCC(F)(F)F [Example 111, 3-[2-Fluoro-4-methyl-5-(2,2,2-trifluoroethylsulfanyl)phenyl]-5,5-dimethyloxazolidine-2,4-dione]
pest or weed control at 500 g/ha ([2]; application rate 500 g/ha): 90% | chromatographic logP [3, 4]: 3.35

Cn1c(=O)n(C2CC2)c(=O)n1-c1ccc(Cl)c(SCC(F)(F)F)c1 [Example 40]
efficacy in % ([2]; application rate 500 g/ha): 100% | logP (HCOOH) [3]: 3.04 | logP (neutral) [3]: 2.98

Cc1ccc(-n2c(=O)n(C3CC3)c(=O)n2Cc2ccccc2)cc1SCC(F)(F)F [Example 90]
efficacy in % ([2]; application rate 500 g/ha): 100% | logP (HCOOH) [3]: 3.81 | logP (neutral) [3]: 3.71
